Results from article PMC4311625, “Structural determinants for binding to angiotensin converting enzyme 2 (ACE2) and angiotensin receptors 1 and 2” (Frontiers in Pharmacology, 2015).
Read-outs that look alike come from different tables or passages of the source. Blank lines part the entries; values can stand above or below the compound they belong to. Ends that are not written are not given here. Peptide text beside a SMILES is read from it.

Legend:
ACE2 [1] = molecular target: T1, ACE2 (Homo sapiens, UniProt Q9BYF1); experiment: ACE2 quenched fluorescence substrate (QFS) inhibition assay; format: biochemical; conditions: 1 h; for inhibition at 10 µM: peptide 10 μM
T1 sequence (Q9BYF1 18-805, species assumed): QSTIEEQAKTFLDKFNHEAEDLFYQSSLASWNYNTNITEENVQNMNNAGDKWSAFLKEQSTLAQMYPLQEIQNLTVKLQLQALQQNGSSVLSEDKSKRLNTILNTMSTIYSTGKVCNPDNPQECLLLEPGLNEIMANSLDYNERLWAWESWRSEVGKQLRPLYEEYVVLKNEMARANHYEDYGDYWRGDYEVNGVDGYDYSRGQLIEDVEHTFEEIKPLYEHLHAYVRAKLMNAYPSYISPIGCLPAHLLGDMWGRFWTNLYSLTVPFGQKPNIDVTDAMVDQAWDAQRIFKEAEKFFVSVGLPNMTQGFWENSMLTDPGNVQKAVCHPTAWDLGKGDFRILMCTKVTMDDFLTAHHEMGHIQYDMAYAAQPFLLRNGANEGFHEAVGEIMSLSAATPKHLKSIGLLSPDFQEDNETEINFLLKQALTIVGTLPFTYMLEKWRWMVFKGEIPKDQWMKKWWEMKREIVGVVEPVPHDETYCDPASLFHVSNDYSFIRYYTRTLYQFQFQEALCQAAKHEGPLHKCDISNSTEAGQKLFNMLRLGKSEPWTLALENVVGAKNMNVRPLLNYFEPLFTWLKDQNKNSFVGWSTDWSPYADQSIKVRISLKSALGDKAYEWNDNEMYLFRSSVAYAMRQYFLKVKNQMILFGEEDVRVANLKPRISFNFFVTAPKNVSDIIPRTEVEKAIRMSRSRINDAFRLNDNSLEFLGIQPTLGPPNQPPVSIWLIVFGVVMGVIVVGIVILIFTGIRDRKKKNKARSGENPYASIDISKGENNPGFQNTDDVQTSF
Protocol: Angiotensin converting enzyme 2 QFS assays were performed for 1 h in 50 uM QFS, 1 M NaCl, 100 mM Tris-Cl, pH 6.5 at 37∘C on a BMG LabTechnologies (Offenburg, Germany), FLUOStar Optima in a 96 well-plate. Subsequent data analysis determined the inhibition of native AngII, its analogs and C-terminal peptides compared to the ACE2 QFS substrate [MCA-APK(DNP)-OH, [Vickers et al., 2002]]. […] Three controls were included in each ACE2 QFS assay; AngII (100 and 10 μM), IHPF (100 μM) and a known ACE2 inhibitor (1 nM; Millennium Pharmaceuticals, Cambridge, MA, USA). QFS assay results were accepted when ACE2 inhibition by AngII (10 μM) was 80 ± 5%, IHPF was 65 ± –5% and the ([Qian et al., 1999]) ‘Millennium Inhibitor’ was 70 ± –5%. Acceptable coefficients of variation (CV; standard deviation/mean × 100) for sample triplicates were <7%.
A library of 40 tetrapeptides based on the four C-terminal residues of Ang II (Ile-His-Pro-Phe/IHPF) was generated and screened for ACE2 binding at 100 μM in order to identify key residues of the C-terminus of Ang II involved in binding to the ACE2 active site. […] Several substitutions (Val, Tyr, Ala, Gly, Phe, Trp, Pro, His, Ile, and Leu) were made in order to further probe the highly hydrophobic and cyclic specificity of the C-terminus of Ang II. A β-napthalene amino acid (Nth) derivative was used as a highly hydrophobic non-natural cyclic residue substitute, and Arg and Lys were substituted for histidine at the second position from the N-terminus of the tetrapeptide to determine if positive charge or other structural or positional requirements were important.

ACE2 [2] = molecular target: T1, ACE2; experiment: LC–MS ACE2 proteolytic cleavage assay; format: in vitro ADME
Protocol: The first hour of the incubation was performed in the Fluorostar Optima plate reader in order to confirm previously observed level of inhibition, then for the remaining time the samples were transferred to small microfuge tubes and incubated in a water bath. The extent of ACE2 cleavage was assessed by LC–MS on an Agilent capillary HP1100, MSD VL3000 Ion-Trap system.

[3] = peptide 100 μM, 50 uM QFS MCA-APK(DNP)-OH, 1 M NaCl, 100 mM Tris-Cl pH 6.5, 37 °C, fluorescence, triplicate, read-out: ACE2 inhibition of single substitution analogs of the C-terminal of AngII (Table 1)
[4] = read-out: ACE2 inhibition of terminally modified IHPF analogs, 10 μM (Table 3, in brackets), 50 uM QFS, 1 M NaCl, 100 mM Tris-Cl pH 6.5, 37 °C
[5] = read-out: ACE2 inhibition of terminally modified IHPF analogs, 100 μM (Table 3), peptide 100 μM, 50 uM QFS, 1 M NaCl, 100 mM Tris-Cl pH 6.5, 37 °C

Compound: CC(C)[C@H](N)C(=O)N[C@@H](Cc1ccc(O)cc1)C(=O)N1CCC[C@H]1C(=O)N[C@@H](Cc1ccccc1)C(=O)O [VYPF] (H-VYPF-OH)
- inhibition at 100 µM (ACE2 [1]; pH 6.5, read-out: Inhibition (%) of ACE2, single and multiple residue substitution analogs (Table 2)): 90%

Compound: DRVYVYPF
- inhibition at 0.1 µM (ACE2 [1]; peptide 0.1 μM, QFS assay, pH 6.5, 37 °C, value ± spread, read-out: Inhibition (%) of ACE2, AngII chimeras, 0.1 μM): 31 ± 3.5%
- inhibition at 1 µM (ACE2 [1]; peptide 1 μM, QFS assay, pH 6.5, 37 °C, value ± spread, read-out: Inhibition (%) of ACE2, AngII chimeras, 1 μM): 84 ± 2.7%
- inhibition at 10 µM (ACE2 [1]; QFS assay, pH 6.5, 37 °C, value ± spread, read-out: Inhibition (%) of ACE2, AngII chimeras, 10 μM): 98 ± 0.3%
- fold less cleavage by ACE2 compared to native Ang II (ACE2 [2]; 10 μM, over 5 h): approximately 4 fold
- Cleavage (%) by ACE2, 1 μM (ACE2 [2]; peptide 1 μM incubated with ACE2 at 37 °C, typically 4-5 h, LC–MS): 64%
- Cleavage (%) by ACE2, 10 μM (ACE2 [2]; peptide 10 μM incubated with ACE2 at 37 °C, typically 4-5 h (5 h), LC–MS): 9 ± 0.3%

Compound: O=C(O)[C@H](Cc1ccccc1)NC(=O)[C@@H]1CCCN1C(=O)[C@H](Cc1c[nH]cn1)NC(=O)[C@@H]1CCCN1 [PHPF] (H-PHPF-OH)
- inhibition at 100 µM (ACE2 [1]; [3]): 78%
- inhibition at 10 µM (ACE2 [1]; [4]): 20%
- inhibition at 100 µM (ACE2 [1]; [5]): 81%

Compound: CC(C)[C@H](NC(=O)[C@H](Cc1ccc(O)cc1)NC(=O)[C@@H]1CCCN1)C(=O)N[C@@H](Cc1ccccc1)C(N)=O [C-amidated PYVF] (H-PYVF-NH2)
- inhibition at 100 µM (ACE2 [1]; [5]): 26%

Compound: CC[C@H](C)[C@H](N)C(=O)N[C@@H](Cc1c[nH]cn1)C(=O)N[C@H](C(=O)N[C@@H](Cc1ccccc1)C(=O)O)[C@@H](C)CC [IHIF] (H-IHIF-OH)
- inhibition at 100 µM (ACE2 [1]; [3]): 44%

Compound: CC(=O)N1CCC[C@H]1C(=O)N[C@@H](Cc1ccc(O)cc1)C(=O)N[C@H](C(=O)N[C@@H](Cc1ccccc1)C(=O)O)C(C)C [N-acetylated PYVF] (Ac-PYVF-OH)
- inhibition at 10 µM (ACE2 [1]; [4]): 18%
- inhibition at 100 µM (ACE2 [1]; [5]): 78%

Next, values leading:

- inhibition at 100 µM (ACE2 [1]; [3]): 78%
- inhibition at 100 µM (ACE2 [1]; peptide 100 μM, 50 uM QFS, 1 M NaCl, 100 mM Tris-Cl pH 6.5, 37 °C, triplicate, read-out: Inhibition (%) of ACE2, single and multiple residue substitution analogs (Table 2)): 78%
Compound: CC(C)[C@H](N)C(=O)N[C@@H](Cc1c[nH]cn1)C(=O)N1CCC[C@H]1C(=O)N[C@@H](Cc1ccccc1)C(=O)O [VHPF] (H-VHPF-OH)

- inhibition at 100 µM (ACE2 [1]; [5]): 18%
Compound: CC[C@H](C)[C@H](N)C(=O)N[C@@H](Cc1c[nH]cn1)C(=O)N1CCC[C@H]1C(=O)N[C@@H](Cc1ccccc1)C(N)=O [C-amidated IHPF] (H-IHPF-NH2)

- inhibition at 100 µM (ACE2 [1]; [3]): 59%
Compound: C[C@H](N)C(=O)N[C@@H](Cc1c[nH]cn1)C(=O)N1CCC[C@H]1C(=O)N[C@@H](Cc1ccccc1)C(=O)O [AHPF] (H-AHPF-OH)

- inhibition at 100 µM (ACE2 [1]; [5]): 8%
Compound: CC(=O)N1CCC[C@H]1C(=O)N[C@@H](Cc1c[nH]cn1)C(=O)N1CCC[C@H]1C(=O)N[C@@H](Cc1ccccc1)C(N)=O [N-acetylated/C-amidated PHPF] (Ac-PHPF-NH2)
